These results are taken from patent US7638535B2, “4-(aminomethyl)-piperidine benzamides as 5HT4-antagonists” (Janssen Pharmaceutica N.V., priority 2003, dated 2009).

In this assay the target is T1, h5-HT4b (Homo sapiens, UniProt Q13639).
T1 construct: expressed in transfected cells; host or cells: HEK 293 (clone 9), membrane preparation
The assay is described as follows: 5HT4 antagonism: [3H]GR113808 binding to membranes of h5-HT4b-HEK 293 clone 9 cells. The conditions noted are these: displacement of [3H]GR113808 0.1 nM, h5-HT4b-HEK 293 membranes, 30 min at 25° C.; read-out: pIC50 (5HT4 antagonistic data) (converted). The procedure:
h5-HT4b-HEK 293 clone 9 cells were cultured in 150 mm Petri dishes and washed twice with cold PBS. The cells were then scraped from the plates and suspended in 50 mM Tris-HCl buffer, pH 7.4 and harvested by centrifugation at 23,500 rpm for 10 minutes. The pellet was resuspended in 5 mM Tris-HCl, pH 7.4 and homogenized with an Ultra Turrax homogenizer. The membranes were collected by centrifugation at 30,000 rpm for 20 min, resuspended in 50 mM Tris-HCl pH 7.4 and stored at −80° C. For the experiment, assay mixtures (0.5 ml) contained 50 μl of the tritiated ligand (5-HT4 antagonist [^3H]GR113808 0.1 nM) and 0.4 ml membrane preparation (15 μg protein/ml). 50 μl of 10% DMSO was added for total binding. 50 μl of 1 μM of (+)-trans-(1-butyl-3-hydroxy-4-piperidinyl)methyl 8-amino-7-chloro-2,3-dihydro-1,4-benzodioxin-5-carboxylate (a proprietary 5HT4 agonist of Janssen Pharmaceutica) was added for determination of non-specific binding.
The [^3H]GR113808 assay buffer was 50 mM HEPES-NaOH, pH 7.4. The mixtures were incubated for 30 min at 25° C. The incubation was terminated by filtration over a Unifilter 96 GF/B presoaked in 0.1% polyethylenimine, followed by six washing steps with 50 mM HEPES-NaOH, pH 7.4.
On the technique in general: Displacement assays read how much labelled ligand stays bound in the presence of the test substance.

T1 sequence (Q13639 whole entry): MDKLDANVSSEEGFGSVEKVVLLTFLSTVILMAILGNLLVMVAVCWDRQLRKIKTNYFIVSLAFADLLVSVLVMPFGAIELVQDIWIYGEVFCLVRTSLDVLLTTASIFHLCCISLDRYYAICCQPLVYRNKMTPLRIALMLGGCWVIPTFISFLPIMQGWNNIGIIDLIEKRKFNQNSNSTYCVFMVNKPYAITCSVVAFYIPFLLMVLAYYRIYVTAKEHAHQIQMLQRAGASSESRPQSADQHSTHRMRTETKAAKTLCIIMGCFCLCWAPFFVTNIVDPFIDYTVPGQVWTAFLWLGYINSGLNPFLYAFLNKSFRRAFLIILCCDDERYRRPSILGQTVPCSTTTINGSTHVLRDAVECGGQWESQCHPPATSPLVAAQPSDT

On to `Cc1cc2c(c(C(=O)NC[C@H]3CCN(CCCC#N)C[C@H]3O)c1)OCCCO2` [compound 241], for which the IC50 was 19.5 nM.
Turning to `N#CCCCN1CC[C@@H](CNC(=O)c2cc(N)c(Cl)c3c2OCCCO3)[C@H](O)C1` [compound 48], the IC50 is 33.1 nM.
To `Cc1cc2c(c(C(=O)NC[C@@H]3CCN(CCCC(=O)N4CCCC4)C[C@H]3O)c1)OCCCO2` [compound 224] belongs 1.78 nM.
In the case of `Nc1cc2c(c(C(=O)NC[C@@H]3CCN(CC4CCCO4)C[C@H]3O)c1)OCCO2` (stereo partly drawn) [compound 22] it was 17.8 nM; in that of `COc1cc2c(c(C(=O)NC[C@@H]3CCNC[C@H]3O)c1)OCCCO2` [compound 88], 257 nM; in that of `Nc1cc2c(c(C(=O)NC[C@@H]3CCN(CCCC(=O)O)C[C@H]3O)c1)OCCCO2` [compound 39], 1230 nM.
In the case of `COCc1cc2c(c(C(=O)NC[C@@H]3CCNC[C@H]3O)c1)OCCCO2` [compound 190] it was 269 nM.
For the compound `Nc1cc(C(=O)NC[C@@H]2CCN(CCC3OCCO3)C[C@H]2O)c2c(c1Br)OCCO2` [compound 141], the IC50 was 43.7 nM.
Consider `CC(C)Nc1cc2c(c(C(=O)NC[C@@H]3CCN(CCCO)C[C@H]3O)c1)OCCCO2` [compound 180], for which the IC50 was 43.7 nM.
In the case of `CCCNc1cc2c(c(C(=O)NC[C@@H]3CCN(CCCOC)C[C@H]3O)c1)OCCCO2` [compound 148], the IC50 is 100 nM.
Take `Nc1cc(C(=O)NC[C@@H]2CCN(CCCOC3CCCCC3)C[C@H]2O)c2c(c1Cl)OCCO2` [compound 31]: the IC50 was 3.31 nM.
To `CCCNc1cc2c(c(C(=O)NC[C@@H]3CCN(CCCC#N)C[C@H]3O)c1)OCCCO2` [compound 131] belongs 135 nM; to `CO[C@@H]1CNCC[C@H]1CNC(=O)c1cc(C#N)cc2c1OCCCO2` [compound 203], 1350 nM; to `COc1cc2c(c(C(=O)NC[C@@H]3CCN(CCCC#N)C[C@H]3O)c1)OCCCO2` [compound 128], 16.6 nM.
To `CNc1cc2c(c(C(=O)NC[C@@H]3CCN(CCCC#N)C[C@H]3O)c1)OCCO2` [compound 20] belongs 52.5 nM; to `CO[C@@H]1CN(CCCNS(C)(=O)=O)CC[C@H]1CNC(=O)c1cc(C)cc2c1OCCCO2` [compound 221], 3.09 nM.
In the case of `CNc1cc(C(=O)NC[C@@H]2CCN(CCCO)C[C@H]2O)c2c(c1Cl)OCCO2` [compound 100] it was 16.6 nM; in that of `CCCCN1CC[C@@H](CNC(=O)c2cc(NCCC)cc3c2OCCCO3)[C@H](O)C1` [compound 134], 95.5 nM.
Take `N#CCCCCN1CC[C@@H](CNC(=O)c2cc(N)c(Br)c3c2OCCO3)[C@H](O)C1` [compound 138]: the IC50 is 81.3 nM.
Regarding `CC1(CCCN2CC[C@@H](CNC(=O)c3cc(N)c(Cl)c4c3OCCCO4)[C@H](O)C2)OCCO1` [compound 76], the IC50 is 22.9 nM.
As to `Cc1cc2c(c(C(=O)NC[C@@H]3CCN(CCC(N)=O)C[C@H]3O)c1)OCCCO2` [compound 214], the IC50 was 2.34 nM.
To `COCCCCN1CCC(O)(CNC(=O)c2cc(C)cc3c2OCCCO3)CC1` [compound 239] belongs 19.1 nM; to `Nc1cc(C(=O)NC[C@@H]2CCN(CCC3OCCO3)C[C@H]2O)c2c(c1Br)OCCCO2` [compound 146], 34.7 nM; to `COCCCN1CC[C@@H](CNC(=O)c2cc(N)c(Cl)c3c2OCCO3)[C@H](O)C1` [compound 9], 16.2 nM.
In the case of `Cc1cc2c(c(C(=O)NC[C@@H]3CCN(CCCc4ccc(O)cc4)C[C@H]3O)c1)OCCCO2` [compound 233] it was 0.355 nM; in that of `CC(C)Nc1cc2c(c(C(=O)NC[C@@H]3CCN(CCC4OCCO4)C[C@H]3O)c1)OCCCO2` [compound 169], 32.4 nM.
Regarding `CNCCCCN1CC[C@@H](CNC(=O)c2cc(NC)cc3c2OCCCO3)[C@H](O)C1` [compound 91], the IC50 is 229 nM.
On to `COCCCN1CC[C@@H](CNC(=O)c2cc(C#N)cc3c2OCCCO3)[C@H](OC)C1` [compound 235], for which the IC50 is 37.2 nM.
To `CCNc1cc2c(c(C(=O)NC[C@@H]3CCN(CCCC#N)C[C@H]3O)c1)OCCCO2` [compound 182] belongs 100 nM; to `CCCNc1cc2c(c(C(=O)NC[C@@H]3CCN(CCC4OCCO4)C[C@H]3O)c1)OCCCO2` [compound 135], 93.3 nM; to `COCCN1CC[C@@H](CNC(=O)c2cc(N)cc3c2OCCCO3)[C@H](O)C1` [compound 45], 135 nM.
In the case of `CNc1cc2c(c(C(=O)NC[C@@H]3CCN(CCC4OCCO4)C[C@H]3O)c1)OCCCO2` [compound 13] it was 708 nM; in that of `Nc1cc(C(=O)NC[C@@H]2CCN(CCOCCO)C[C@H]2O)c2c(c1Cl)OCCCO2` [compound 72], 83.2 nM.
For the compound `Cc1cc2c(c(C(=O)NC[C@@H]3CCN(CCOc4ccc(S(N)(=O)=O)cc4)C[C@H]3O)c1)OCCCO2` [compound 198], the IC50 was 1.2 nM.
For `N#CCc1cc2c(c(C(=O)NC[C@@H]3CCN(CCC4OCCO4)C[C@H]3O)c1)OCCCO2` [compound 123], the IC50 was 43.7 nM.
For `Nc1cc(C(=O)NC[C@@H]2CCN(CC3CCCO3)C[C@H]2O)c2c(c1Br)OCCO2` (stereo partly drawn) [compound 137], the IC50 is 27.5 nM.
As to `Cc1cc2c(c(C(=O)NC[C@@H]3CCN(CCCOc4ccc(S(N)(=O)=O)cc4)C[C@H]3O)c1)OCCCO2` [compound 196], the IC50 is 0.427 nM.
In the case of `CNCCCCN1CC[C@@H](CNC(=O)c2cc(N)c(Cl)c3c2OCCO3)[C@H](O)C1` [compound 89] it was 30.9 nM; in that of `COCCCCN1CC[C@@H](CNC(=O)c2cc(N)c(Cl)c3c2OCCCO3)[C@H](O)C1` [compound 58], 14.1 nM.
In the case of `Nc1cc(C(=O)NC[C@@H]2CCN(CCCO)C[C@H]2O)c2c(c1Br)OCCO2` [compound 140] it was 93.3 nM; in that of `Cc1cc2c(c(C(=O)NC[C@@H]3CCN(CCCC(=O)O)C[C@H]3O)c1)OCCCO2` [compound 192], 30.9 nM; in that of `Cc1cc2c(c(C(=O)NC[C@@H]3CCN(CCCNS(C)(=O)=O)C[C@H]3O)c1)OCCCO2` [compound 189], 1.86 nM.
To `Nc1cc(C(=O)NC[C@@H]2CCN(CCCO)C[C@H]2O)c2c(c1Br)OCCCO2` [compound 147] belongs 43.7 nM.
For `N#CCc1cc2c(c(C(=O)NC[C@@H]3CCN(CC4CCCO4)C[C@H]3O)c1)OCCCO2` (stereo partly drawn) [compound 127], the IC50 was 17 nM.
Turning to `CCCCN1CC[C@@H](CNC(=O)c2cc(NC)cc3c2OCCO3)[C@H](O)C1` [compound 116], the IC50 was 16.2 nM.
In the case of `CO[C@@H]1CNCC[C@H]1CNC(=O)c1cc(C)cc2c1OCCCO2` [compound 204] it was 83.2 nM; in that of `Nc1cc(C(=O)NC[C@@H]2CCN(CCCOC3CCCCC3)C[C@H]2O)c2c(c1Cl)OCCCO2` [compound 65], 3.55 nM; in that of `CO[C@@H]1CN(CCCNS(C)(=O)=O)CC[C@H]1CNC(=O)c1cc(C#N)cc2c1OCCCO2` [compound 236], 47.9 nM.
In the case of `CC(C)OCCCN1CC[C@@H](CNC(=O)c2cc(N)c(Cl)c3c2OCCO3)[C@H](O)C1` [compound 93] it was 17 nM.
Take `CNc1cc2c(c(C(=O)NC[C@@H]3CCN(CC4CCCO4)C[C@H]3O)c1)OCCO2` (stereo partly drawn) [compound 19]: the IC50 is 17.4 nM.
For `CNc1cc2c(c(C(=O)NC[C@@H]3CCN(CCCC(C)=O)C[C@H]3O)c1)OCCO2` [compound 61], the IC50 was 14.5 nM.
